In publication PMC9233675, “Ru(II) photocages enable precise control over enzyme activity with red light” (Nature Communications, 2022):
Several values for one entry are separate records, joined by “and”; a condition that tells them apart may be missing. Identical values can stand only once. Like-named read-outs stand apart in the source and are kept apart here.

Legend:
CYP1B1 S127A = target: T1, CYP1B1 S127A (Homo sapiens, UniProt Q16678, S127A); assay: In cell CYP1B1 activity assay, S127A variant; conditions: for logSI S127A: log of the ratio of IC50 values mutant vs WT (Fig. 3c)
T1 sequence (Q16678 1-543 S127A): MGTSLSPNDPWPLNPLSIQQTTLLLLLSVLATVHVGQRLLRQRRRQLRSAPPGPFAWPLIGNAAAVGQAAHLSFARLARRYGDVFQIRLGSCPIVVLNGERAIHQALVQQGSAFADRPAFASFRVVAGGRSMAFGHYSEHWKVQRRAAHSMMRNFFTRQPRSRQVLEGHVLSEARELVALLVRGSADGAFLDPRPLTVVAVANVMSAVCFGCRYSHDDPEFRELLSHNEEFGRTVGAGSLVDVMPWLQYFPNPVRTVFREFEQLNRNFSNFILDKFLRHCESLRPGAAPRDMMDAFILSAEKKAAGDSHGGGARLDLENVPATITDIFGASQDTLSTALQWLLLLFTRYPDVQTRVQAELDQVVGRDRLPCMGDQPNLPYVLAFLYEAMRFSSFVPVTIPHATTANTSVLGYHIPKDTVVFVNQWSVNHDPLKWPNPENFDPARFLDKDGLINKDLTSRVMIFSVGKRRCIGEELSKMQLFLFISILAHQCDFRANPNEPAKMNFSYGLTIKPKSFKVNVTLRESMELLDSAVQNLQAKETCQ
Source text: Site directed mutagenesis was used to probe the importance of specific active-site contacts identified through the structural assessment (Fig. 3a, b) and simulations. In all cases, conservative mutations were made to maintain polar or hydrophobic character and approximate size. The aromatic residues that frame the inhibitor binding site, Phe143 and Phe231, were mutated to Leu to determine the importance of the π interactions. In addition, the Ser127 residue, located in the upper corner of the active site on the B-C loop, was chosen for mutation based on the simulations. This amino acid transiently contacts the inhibitors, but also forms a hydrogen bond with Asp326 of the I-helix, and thus may impact the position of this helix with regards to the B-C loop. […] Rather than directly mutating these residues in the I-helix, neighboring residues Gln332 and Asp333 were targeted, with the hope of interrupting amino acid interactions that position the helix within the active site.
The ratio of IC50 values for the WT vs. the mutant are shown in Fig. 3c and reflects the importance of the specific contact; the log of the value is used to aid in visualization.
Cell lines were seeded onto Geltrex coated 96-well plates at 40,000 cells/well, and grown overnight in DMEM media containing 1 μg/mL tetracycline. The media was then replaced with Opti-MEM supplemented with 2% FBS and 1 μg/mL tetracycline. Compounds were serially diluted in Opti-MEM supplemented with 2% FBS and 1 μg/mL tetracycline and an equal volume of compound added to the cells (n = 3). Following a 1 h incubation, resorufin ethyl ether (REE; for CYP1B1 and 1A1) or dibenzylfluorescein (DBF; for 19A1) was added to the cells for a total concentration of 5 μM for REE and 1 μM for DBF. […] Dose–response curves were generated in Prism and normalized using the no-compound control (set as 100% activity) and the no-cell control (set as 0% activity; this value in the raw data reflects the background fluorescence of the dye alone).

[1] = Stability of compounds in human liver microsomes; conditions: for Remaining, % (NCF=60min): human liver microsomes, no co-factor (no NADPH); for CLint scaled / Remaining, % (T=60min) / half-life / microsomal CLint: human, liver microsomes
[2] = system: cytochrome P450 enzymes in pooled human liver microsomes; assay: Inhibition of cytochrome P450 enzymes in pooled human liver microsomes (phLM); assay type: biochemical; conditions: human, pooled human liver microsomes, pH 7.8, probe 7-benzoyloxy-4-trifluoromethylcoumarin, 50 µM; Dark; conversion of 7-benzoyloxy-4-trifluoromethylcoumarin
Source text: (§1) Pooled human liver microsomes were used to test the potential impact of the inhibitors on multiple polymorphisms of highly promiscuous, drug metabolizing CYPs[27]. There are more than 10 different CYPs in this preparation, and the use of pooled microsomes ensures that genetic variability in CYPs is represented. […] This is notable, as the liver CYPs have evolved to bind the widest possible variety of molecules.
(§2) Commercial preparations of pooled human liver microsomes come from 50 individuals, providing representation of biologically relevant CYP variants. Compounds were screened for inhibition of cytochrome P450 enzymes in phLMs using a 96-well kinetic assay. […] Compound stocks were diluted in dose–response, and added in 100 mM potassium phosphate buffer pH 7.8 with 50 µM 7-benzoyloxy-4-trifluoromethylcoumarin (Corning, prepared as a 10 mM DMSO stock) and 16 µg of phLMs (XenoTech, prepared as 20 mg protein/mL suspended in 250 mM sucrose) per well (n = 3). The compounds were incubated for 5 min in the absence of light at 25 °C. The 96-well plate was then either protected from light or irradiated with red light for 1 h (660 nm, 58.7 J/cm^2). Enzymatic turnover was initiated upon addition of NADPH (TCI, prepared immediately prior to addition) at a concentration 1.2 mM per well. To determine background fluorescence from the assay, NADPH was omitted from several control wells. The reactions were immediately placed in a SpectraFluor Plus plate reader (Tecan) preheated to 37 °C, and fluorescence measurements taken every 3 min for 120 min with excitation of 435 nm and emission of 525 nm. Fluorescence measurements in the […], and the data was processed with GraphPad Prism 6. The linear portion of the signal for each dose point with respect to time was first fitted to a line to determine the rate. The resulting slope of these lines was then plotted against the logarithmic concentration of the study compound to provide a dose–response curve.

[3] = system: cytochrome P450 enzymes in phLMs; assay: as above; assay type: biochemical; conditions: for SI (1B1:phLM): ratio of IC50 phLM to CYP1B1, for complexes 4–6 IC50 (light); for enzyme activity pHLM: dark, scale 0–100
Source text: as §1, §2

[4] = assay type: physicochemical
Source text: Liver Weight Blood Flow Protein
(g/kg Body Weight) (mL/min/kg) (mg/g liver
Supplementary Table 7. Quantum yields of photosubstitution in different solvents.
Compound Φ(PS) 5% DMSO in H2Oa Φ(PS) Opti-MEMa Φ(PS) CH3OH […]
a Quantum yield for photosubstitution, ΦPS, in 5% DMSO in H2O and Opti-MEM, calculated by optical approach
(Fig. S8-10). b ΦPS in 5% DMSO in H2O, determined by HPLC approach. HPLC was used due to overlap in absorbance profiles for 6 and its photochemical product (Fig. S7).
Supplementary Table 8. Lipinski’s rule of five. […]
a log P was calculated by taking the logarithm of the ratio of the MLCT absorbance of each complex (4-6) in octanol to the corresponding absorbance in H2O.
1. Lameijer, L. N. et al. A Red-Light-Activated Ruthenium-Caged NAMPT Inhibitor Remains Phototoxic in Hypoxic Cancer Cells. Angew. Chem. Int. Ed. Engl. 56, 11549-11553,

[5] = Irradiation-induced 1O2 production (Singlet Oxygen Sensor Green assay); assay type: physicochemical; conditions: sheet S27; triplicate columns; DMSO control about 0.9
Source text: Some Ru(II) complexes can generate singlet oxygen when photoexcited, a feature that has been applied to the selective photoinactivation of proteins. In this approach, the Ru(II) system is conjugated to a peptide that is a specific ligand for the protein target; binding of the peptide to the protein ensures close proximity of the Ru(II) center and thus, upon photoexcitation, the generation of a high local concentration of singlet oxygen. […] As very little of this reactive oxygen species was generated, inactivation of the CYP enzymes by this process appears unlikely.
Supplementary Figure 27. Determination of irradiation-induced 1O2 production with 660 nm light (1 hr = 58.7 J/cm2)
using the Singlet Oxygen Sensor Green assay. […]

[6] = Kinetic solubility by UV/Vis; assay type: physicochemical; conditions: Opti-MEM with 2% fetal bovine serum, room temperature, 3 hours; for Kinetic solubility C1: replicate 1; for Kinetic solubility C2: replicate 2; for Kinetic solubility C3: replicate 3
Description: Kinetic solubility was measured by UV/Vis. In this experiment, 14 μL of 10 mM DMSO stocks of complexes 4–6 were diluted in 700 μL of Opti-MEM™ with 2% fet al bovine serum and kept at room temperature for 3 hours. The solutions were then filtered using syringe-driven filters (FV12S) and concentrations were measured by UV/vis absorbance in a 96-well plate in triplicate. […]
4. Simulate in the NPT ensemble using a Berendsen thermostat and a Berendsen barostat with: […]
5. Simulate in the NPT ensemble using a Berendsen thermostat and a Berendsen barostat with: […]
6. Simulate in the NPT ensemble using a Berendsen thermostat and a Berendsen barostat with: […]

[7] = Dark, conversion of 7-benzoyloxy-4-trifluoromethylcoumarin, read-out: IC50 phLM Dark
[8] = Light: 660 nm, 58.7 J/cm^2, read-out: IC50 phLM Light

SMILES | logSI S127A (CYP1B1 S127A) | Remaining, % (NCF=60min) [1] [%] | CLint scaled [1] [mL/min/kg] | Remaining, % (T=60min) [1] [%] | half-life [1] [min] | microsomal CLint [1] [µL/min/mg] | IC50 [2] [nM] | SI (1B1:phLM) [3] | log P [4] | irradiation-induced 1O2 production (Singlet Oxygen Sensor Green signal, relative) [5] | IC50 [3, 7] [µM] | IC50 [3, 8] [µM] | Kinetic solubility C average [6] [µM] | Kinetic solubility C1 [6] [µM] | Kinetic solubility C2 [6] [µM] | Kinetic solubility C3 [6] [µM] | further results
COc1ccc(/C=C/c2ccncn2)c(OC)c1 [Compound 2] | 1.7 | 96.5 | 181 | 0.4 | 6.9 | 201 | 1180 | 16 | – | – | – | – | – | – | – | – | IC50 (CYP1B1 S127A): 3.74 µM; Ratio IC50 (mutant)/ IC50 (WT), S127A (CYP1B1 S127A): 50
COc1cc(/C=C/c2ccc(OC)cc2OC)cc(OC)c1 [Compound 1, reference compound] | -1.5 | 77.1 | – | – | – | – | 11000 | – | – | – | – | – | – | – | – | – | –
COc1ccc(C=Cc2ccncc2)c(OC)c1 [Compound 3] | 2.2 | 92.1 | 155 | 0.6 | 8.07 | 172 | 334 | – | – | – | – | – | – | – | – | – | –
COc1ccc(/C=C/c2cc[n+]([Ru-4]345([n+]6ccccc6-c6cccc([n+]63)-c3cccc[n+]34)[n+]3c(cc(C(=O)[O-])c4ccccc43)-c3cc(C(=O)[O-])c4ccccc4[n+]35)cc2)c(OC)c1 [Compound 6] | – | – | – | – | – | – | – | 4300 | 0.2 | 0.9896 and 0.937 and 1.032 | ~30 | 1.28 | 36.9 | 33.9 | 38.5 | 38.2 | enzyme activity pHLM ([3]; Log conc 0.273001): 89.9976; enzyme activity pHLM ([3]; Log conc 0.875061): 84.6565; enzyme activity pHLM ([3]; Log conc 1.47712): 45.9092; enzyme activity pHLM ([3]; Log conc -0.329059): 93.178; enzyme activity pHLM ([3]; Log conc -0.931119): 88.2981; enzyme activity pHLM ([3]; Log conc -1.53318): 91.697; enzyme activity pHLM ([3]; Log conc -2.13524): 93.7121
COc1ccc(/C=C/c2cc[n+]([Ru-4]345([n+]6ccccc6-c6cccc([n+]63)-c3cccc[n+]34)[n+]3c(cc(C(=O)[O-])c4ccccc43)-c3cc(C(=O)[O-])c4ccccc4[n+]35)cn2)c(OC)c1 [Compound 5] | – | – | – | – | – | – | – | ∼1750 | -0.5 | 1.081 and 0.9897 and 0.9798 | > 30 | ~30 | 112.2 | 113.3 | 110.0 | 113.0 | –
